ChEMBL document CHEMBL1165907, “A comparative study of flavonoid analogues on streptozotocin-nicotinamide induced diabetic rats: quercetin as a potential antidiabetic agent acting via 11beta-hydroxysteroid dehydrogenase type 1 inhibition” (2010)

Tests used:
Rattus norvegicus [1] = assay: Antidiabetic activity in STZ-induced Wistar rat assessed as reduction in blood glucose level at 50 mg/kg, ig after 2 day relative to control; assay type: functional; design: scale not given: the % may be the effect or the level left; details: route intragastric
Rattus norvegicus [2] = assay: Antidiabetic activity in STZ-induced Wistar rat assessed as reduction in blood glucose level at 50 mg/kg, ig after 4 day relative to control; assay type: functional; design: scale not given: the % may be the effect or the level left; details: route intragastric
Rattus norvegicus [3] = assay: Antidiabetic activity in STZ-induced Wistar rat assessed as reduction in blood glucose level at 50 mg/kg, ig after 1 day relative to control; assay type: functional; design: scale not given: the % may be the effect or the level left; details: route intragastric
Rattus norvegicus [4] = assay: Antidiabetic activity in Wistar rat assessed as change in blood glucose level at 50 mg/kg, ig after 7 hrs (RVb = -10.51% +/- 5.53%); assay type: functional; details: route intragastric
Rattus norvegicus [5] = assay: Antidiabetic activity in Wistar rat assessed as change in blood glucose level at 50 mg/kg, ig after 1 hr (RVb = 20.18 % +/- 8.49%); assay type: functional; details: route intragastric
Rattus norvegicus [6] = assay: Antidiabetic activity in Wistar rat assessed as change in blood glucose level at 50 mg/kg, ig after 3 hrs (RVb = -9.83 % +/- 5.67%); assay type: functional; details: route intragastric
[7] = biological target: 11-beta-hydroxysteroid dehydrogenase 1 (Homo sapiens) (UniProt P28845); assay: Inhibition of human 11beta HSD1 in HEK293 cells at 10 uM; assay type: cell-based
11-beta-hydroxysteroid dehydrogenase 1 (Homo sapiens), sequence (P28845 whole entry, looked up): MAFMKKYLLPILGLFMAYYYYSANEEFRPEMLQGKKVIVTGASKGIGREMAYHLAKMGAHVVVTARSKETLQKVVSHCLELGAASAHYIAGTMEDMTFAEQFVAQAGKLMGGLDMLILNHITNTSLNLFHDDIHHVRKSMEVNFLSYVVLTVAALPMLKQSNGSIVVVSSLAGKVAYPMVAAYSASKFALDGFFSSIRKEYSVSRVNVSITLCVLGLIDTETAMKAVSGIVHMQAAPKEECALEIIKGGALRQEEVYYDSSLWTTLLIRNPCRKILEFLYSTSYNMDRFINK

Rattus norvegicus [8] = assay: Hypoglycemic activity in Wistar rat assessed as change in blood glucose level at 50 mg/kg, ig after 3 hrs (RVb = 1.39 +/- 5.895 %); assay type: functional; details: route intragastric
Rattus norvegicus [9] = assay: Antidiabetic activity in Wistar rat assessed as change in blood glucose level at 50 mg/kg, ig after 5 hrs (RVb = -1.17% +/- 8.77%); assay type: functional; details: route intragastric
Rattus norvegicus [10] = assay: Antidiabetic activity in STZ-induced Wistar rat assessed as reduction in blood glucose level at 50 mg/kg, ig after 5 day relative to control; assay type: functional; design: scale not given: the % may be the effect or the level left; details: route intragastric
Rattus norvegicus [11] = assay: Hypoglycemic activity in Wistar rat assessed as change in blood glucose level at 50 mg/kg, ig after 1 hr (RVb = 10.96 +/- 3.67 %); assay type: functional; details: route intragastric
Rattus norvegicus [12] = assay: Hypoglycemic activity in Wistar rat assessed as change in blood glucose level at 50 mg/kg, ig after 7 hrs (RVb = -3.59 +/- 2.65 %); assay type: functional; details: route intragastric
Rattus norvegicus [13] = assay: Hypoglycemic activity in Wistar rat assessed as change in blood glucose level at 50 mg/kg, ig after 5 hrs (RVb = 1.21+/- 3.64 %); assay type: functional; details: route intragastric
Rattus norvegicus [14] = assay: Antidiabetic activity in STZ-induced Wistar rat assessed as reduction in blood glucose level at 50 mg/kg, ig after 3 day relative to control; assay type: functional; design: scale not given: the % may be the effect or the level left; details: route intragastric

Question: How did the Activity (Rattus norvegicus [1]) turn out when O=c1cc(-c2ccccc2)oc2ccccc12 [FLAVONE] was run?
Answer: 32.76%

Question: And the Activity (Rattus norvegicus [2])?
Answer: 10.6%

Question: What about the Activity (Rattus norvegicus [3]) of the same compound?
Answer: 0.05%

Question: What about the Activity (Rattus norvegicus [4]) of the same compound?
Answer: -39.69%

Question: What about the Activity (Rattus norvegicus [5]) of the same compound?
Answer: 13.53%

Question: What about the Activity (Rattus norvegicus [6]) of the same compound?
Answer: -10.02%

Question: What about the inhibition [7] of the same compound?
Answer: 16%

Question: What about the Activity (Rattus norvegicus [8]) of the same compound?
Answer: -21.56%

Question: What about the Activity (Rattus norvegicus [9]) of the same compound?
Answer: -21.41%

Question: What about the Activity (Rattus norvegicus [10]) of the same compound?
Answer: 10.8%

Question: And the Activity (Rattus norvegicus [11])?
Answer: -16.16%

Question: And the Activity (Rattus norvegicus [12])?
Answer: -11.65%

Question: What about the Activity (Rattus norvegicus [13]) of the same compound?
Answer: -24.7%

Question: And the Activity (Rattus norvegicus [14])?
Answer: 19.5%

Question: How did the Activity (Rattus norvegicus [1]) turn out when O=c1cc(-c2ccccc2)oc2cc(O)ccc12 [7-HYDROXYFLAVONE] was run?
Answer: 35.5%

Question: What about the Activity (Rattus norvegicus [2]) of the same compound?
Answer: 20.4%

Question: What about the Activity (Rattus norvegicus [3]) of the same compound?
Answer: 8.8%

Question: And the Activity (Rattus norvegicus [4])?
Answer: -12.18%

Question: What about the Activity (Rattus norvegicus [5]) of the same compound?
Answer: -12.79%

Question: What about the Activity (Rattus norvegicus [6]) of the same compound?
Answer: -12.69%

Question: What about the Activity (Rattus norvegicus [8]) of the same compound?
Answer: -6.19%

Question: And the Activity (Rattus norvegicus [9])?
Answer: -10.03%

Question: And the Activity (Rattus norvegicus [10])?
Answer: 38.5%

Question: And the Activity (Rattus norvegicus [11])?
Answer: 5.05%

Question: What about the Activity (Rattus norvegicus [12]) of the same compound?
Answer: -4.81%

Question: And the Activity (Rattus norvegicus [13])?
Answer: 7.39%

Question: What about the Activity (Rattus norvegicus [14]) of the same compound?
Answer: 36%

Question: With O=c1c(O)c(-c2ccccc2)oc2ccccc12 [FLAVONOL] as the compound, how does the Activity (Rattus norvegicus [1]) read?
Answer: 7.7%

Question: And the Activity (Rattus norvegicus [2])?
Answer: 60.1%

Question: And the Activity (Rattus norvegicus [3])?
Answer: 2.09%

Question: And the Activity (Rattus norvegicus [4])?
Answer: -16.04%

Question: What about the Activity (Rattus norvegicus [5]) of the same compound?
Answer: 1.93%

Question: What about the Activity (Rattus norvegicus [6]) of the same compound?
Answer: -5.92%

Question: And the Activity (Rattus norvegicus [8])?
Answer: -20.2%

Question: What about the Activity (Rattus norvegicus [9]) of the same compound?
Answer: -15.66%

Question: What about the Activity (Rattus norvegicus [10]) of the same compound?
Answer: 9.2%

Question: And the Activity (Rattus norvegicus [11])?
Answer: -6.04%

Question: And the Activity (Rattus norvegicus [12])?
Answer: -10.05%

Question: And the Activity (Rattus norvegicus [13])?
Answer: -2.36%

Question: What about the Activity (Rattus norvegicus [14]) of the same compound?
Answer: 35.7%

Question: O=c1cc(-c2ccccc2)oc2ccc(O)cc12 [6-HYDROXYFLAVONE] was tested. Which Activity (Rattus norvegicus [1]) did it give?
Answer: 6.6%

Question: And the Activity (Rattus norvegicus [2])?
Answer: 2.53%

Question: What about the Activity (Rattus norvegicus [3]) of the same compound?
Answer: 16.9%

Question: What about the Activity (Rattus norvegicus [4]) of the same compound?
Answer: -25.42%

Question: And the Activity (Rattus norvegicus [5])?
Answer: -13.08%

Question: What about the Activity (Rattus norvegicus [6]) of the same compound?
Answer: -11.07%

Question: What about the Activity (Rattus norvegicus [8]) of the same compound?
Answer: 6.51%

Question: And the Activity (Rattus norvegicus [9])?
Answer: -19.81%

Question: And the Activity (Rattus norvegicus [10])?
Answer: 34.7%

Question: What about the Activity (Rattus norvegicus [11]) of the same compound?
Answer: -16.21%

Question: What about the Activity (Rattus norvegicus [12]) of the same compound?
Answer: -0.93%

Question: And the Activity (Rattus norvegicus [13])?
Answer: 6.41%

Question: And the Activity (Rattus norvegicus [14])?
Answer: 13.15%

Question: Which Activity (Rattus norvegicus [1]) does the source give for COc1ccc(Cl)cc1C(=O)NCCc1ccc(S(=O)(=O)NC(=O)NC2CCCCC2)cc1 [GLYBURIDE] here?
Answer: 32.2%

Question: What about the Activity (Rattus norvegicus [2]) of the same compound?
Answer: 50%

Question: What about the Activity (Rattus norvegicus [3]) of the same compound?
Answer: 33.2%

Question: And the Activity (Rattus norvegicus [4])?
Answer: -42.52%

Question: What about the Activity (Rattus norvegicus [5]) of the same compound?
Answer: -21.93%

Question: And the Activity (Rattus norvegicus [6])?
Answer: -24.93%

Question: What about the Activity (Rattus norvegicus [8]) of the same compound?
Answer: -21.71%

Question: What about the Activity (Rattus norvegicus [9]) of the same compound?
Answer: -43.88%

Question: And the Activity (Rattus norvegicus [10])?
Answer: 40%

Question: And the Activity (Rattus norvegicus [11])?
Answer: -8.29%

Question: What about the Activity (Rattus norvegicus [12]) of the same compound?
Answer: -23.77%

Question: What about the Activity (Rattus norvegicus [13]) of the same compound?
Answer: -24.78%

Question: What about the Activity (Rattus norvegicus [14]) of the same compound?
Answer: 38.5%

Question: Which results are given for O=c1cc(-c2ccccc2)oc2cc(O)cc(O)c12 [CHRYSIN]?
Answer: Activity (Rattus norvegicus [1]): 19.6%; Activity (Rattus norvegicus [2]): 0.5%; Activity (Rattus norvegicus [3]): 7.07%; Activity (Rattus norvegicus [4]): -35.5%; Activity (Rattus norvegicus [5]): -1.7%; Activity (Rattus norvegicus [6]): -9.96%; Activity (Rattus norvegicus [8]): -19.98%; Activity (Rattus norvegicus [9]): -10.41%; Activity (Rattus norvegicus [10]): 17.17%; Activity (Rattus norvegicus [11]): -9.27%; Activity (Rattus norvegicus [12]): -9.42%; Activity (Rattus norvegicus [13]): -17.08%; Activity (Rattus norvegicus [14]): 5.2%

Question: For O=c1c(O)c(-c2ccc(O)c(O)c2)oc2cc(O)cc(O)c12 [QUERCETIN], which Activity (Rattus norvegicus [1]) is on record?
Answer: 13.3%

Question: What about the Activity (Rattus norvegicus [2]) of the same compound?
Answer: 21.3%

Question: And the Activity (Rattus norvegicus [3])?
Answer: 10.8%

Question: What about the Activity (Rattus norvegicus [4]) of the same compound?
Answer: -42.62%

Question: And the Activity (Rattus norvegicus [5])?
Answer: -2.37%

Question: What about the Activity (Rattus norvegicus [6]) of the same compound?
Answer: -17.28%

Question: And the inhibition [7]?
Answer: 27%

Question: What about the Activity (Rattus norvegicus [8]) of the same compound?
Answer: -21.1%

Question: What about the Activity (Rattus norvegicus [9]) of the same compound?
Answer: -52.68%

Question: And the Activity (Rattus norvegicus [10])?
Answer: 3.7%

Question: What about the Activity (Rattus norvegicus [11]) of the same compound?
Answer: -16.19%

Question: And the Activity (Rattus norvegicus [12])?
Answer: -17.85%

Question: And the Activity (Rattus norvegicus [13])?
Answer: -10.74%

Question: What about the Activity (Rattus norvegicus [14]) of the same compound?
Answer: 27%
